Columns and labels:
progestin receptor = experiment: Receptor binding: relative binding activity (RBA) for progestin receptor, competition with 3H-R5020 in T-47D cells; conditions: T-47D human breast carcinoma cells; ratio of concentrations causing 50% displacement of 3H-R5020; percentage of reference standard R-5020
Description: Receptor Binding. The affinity of the compounds for hormone receptors was determined by standard procedures similar to those that have been described, inter alia, by Wagner et al., Proc. Natl. Acad. Sci., 93, 8739-8744 (1996) for COS-1 cells. The human breast carcinoma (T-47D) cell line was used to assess RBA for progestin receptor. The cell line used was obtained from ATCC (American Type Culture Collection) and stored frozen at -135° C. until a week before the assays were conducted. The cells were thawed and cultured to achieve the desired cell number (5 to 7 days on average). […] After incubation overnight, medium was removed, the cells were washed and solubilized and radioactivity was measured by liquid scintillation spectromctry. Nonspecific binding was determined by incubation with an excess of unlabeled R5020 and subtracted from total binding to calculate specific binding. […]
The percentage of specifically bound ^3 H-R5020 for each concentration tested was calculated and binding curves were generated by plotting the percentage of specifically bound ^3 H-R-5020 versus the concentration of the competitor. The relative binding activity (RBA) of the test compounds, relative to the reference standard (R5020) as well as the internal standard, was determined from the ratio of concentrations causing 50% displacement for each unknown and standard, and expressed as a percentage value. […]

[1] = system: estrogen-primed, progesterone-stimulated immature female rabbits; experiment: In vivo antiprogestational activity, uterine endometrial effects scored according to McPhail; parameters: species or system rabbit; conditions: oral
Description: In vivo Test. Antiprogestational activity was determined in vivo by dose-response studies in estrogen-primed, progesterone-stimulated immature female rabbits and results were scored according to McPhail (McPhail, J. Physiol., 83: 146 (1934)). These are standard procedures well-known to those skilled in the art. For determining antiprogestational (antagonist) activity, the test compound was given orally together with subcutaneous administration of progesterone. It was tested orally at 0.5, 1 and 2 mg total dose in estrogenprimed immature female rabbits that were simultaneously given subcutaneous progesterone. The rabbits, weighing about 1.5 kg, were primed with estrogen one a day for 6 days and then treated once a day for 5 days with 0.8 mg total dose of progesterone--i.e.160 μg/day--while at the same time giving the test compound orally once a day in a vehicle of 10% ethanol/sesame oil (0.5 mL volume). Necropsy was performed one day after the last dose. Uterine endometrial effects were scored according to McPhail and potency was evaluated by statistical comparison with the standard compound
17α-acetoxy-11β-[4-(N,N-dimethylamino)phenyl]-19-norpregna-4,9-diene-3,20-dione.

[2] = from C. E. Cook et al, Human Reproduction, 9, Supplement 1, 32-39, June 1994; cited from earlier work

SMILES | RBA (relative binding activity) relative to R-5020 (progestin receptor) | antiprogestational potency relative to the standard compound ([1]; once a day for 5 days with subcutaneous progesterone, McPhail score, standard = 17α-acetoxy-11β-[4-(N,N-dimethylamino)phenyl]-19-norpregna-4,9-diene-3,20-dione) | antiprogestational potency relative to mifepristone ([1]; worked out from 5-fold versus standard and standard 3-fold versus mifepristone) | antiprogestational activity (in words) ([1]; estrogen-primed, progesterone-stimulated immature female rabbits) | antiprogestational potency relative to mifepristone [2]
CC#C[C@]1(C(C)=O)CC[C@H]2[C@@H]3CCC4=CC(=O)CCC4=C3[C@@H](c3ccc(N(C)C)cc3)C[C@@]21C [A-1, 11β-[4-(N,N-Dimethylamino)phenyl]-17α-(1-propynyl)-19-norpregna-4,9-diene-3,20-dione] | 313% | 5 fold | ≤ 15 fold | – | –
CC#C[C@]1(C(C)=O)CC[C@H]2[C@@H]3CCC4=CC(=O)CCC4=C3[C@@H](c3ccc(C(C)=O)cc3)C[C@@]21C [A-16, 11β-(4-Acetylphenyl)-17α-(1-propynyl)-19-norpregna-4,9-diene-3,20-dione] | 439% | – | – | had antiprogestational activity | –
CC(=O)O[C@]1(C(C)=O)CC[C@H]2[C@@H]3CCC4=CC(=O)CCC4=C3[C@@H](c3ccc(N(C)C)cc3)C[C@@]21C [standard compound, 17α-acetoxy-11β-[4-(N,N-dimethylamino)phenyl]-19-norpregna-4,9-diene-3,20-dione] | – | – | – | – | approximately 3 fold
